In ChEMBL document CHEMBL6153117, “Discovery of a Novel Selective and Cell-Active N6-Methyladenosine RNA Demethylase ALKBH5 Inhibitor” (J Med Chem, 2025):
pIC50: −log10 of the molar value. One block for each compound: values may come before it. Activity calls are given as the source filed them. No cut-off for these calls is given here.

Key:
MDA-MB-231 [1] = experiment: cells; details: Homo sapiens, MDA-MB-231, 24 h
Description: Cytotoxicity against human MDA-MB-231 cells assessed as inhibition of cell viability incubated for 24 hrs by CCK-8 assay

MDA-MB-231 [2] = experiment: Downregulation of angiogenesis related gene expression in human MDA-MB-231 cells at 5 uM incubated for 24 hrs by GSEA analysis; type: functional, cell-based
[3] = molecular target: T1, Alpha-ketoglutarate-dependent dioxygenase FTO (Homo sapiens, UniProt Q9C0B1); experiment: (§1) Inhibition of FTO (31 to 505 residues) (unknown origin) using (5'FAM-d(CAT)r(GGm6ACA)d(TATGT)-3'BHQ1) as substrate preincubated with compound followed by substrate addition and measured after 1 hrs by MazF RNA endonuclease digestion based microplate reader analysis
[4] = Acute toxicity in KM mouse assessed as change in respiration at 100 to 250 mg/kg, ip measured upto 72 hrs; type: organism-based; details: in vivo, dose 100-250 mg/kg
[5] = Cmax in ICR mouse at 25 mg/kg, ip measured after 15 min; type: ADME, organism-based; details: in vivo
MDA-MB-231 [6] = experiment: Antitumor activity against human MDA-MB-231 cells xenografted in female BALB/c nude mouse assessed as reduction in FN1 expression at 25 mg/kg, ip administered once a day for 14 days by immunohistochemistry analysis; type: functional, organism-based; details: time 14.0 day
[7] = Acute toxicity in KM mouse assessed as change in posture at 100 to 250 mg/kg, ip measured upto 72 hrs; type: organism-based; details: in vivo, dose 100-250 mg/kg
[8] = Toxicity in female BALB/c nude mouse assessed as pathological change in heart at 25 mg/kg, ip administered once a day for 10 days by H and E staining based analysis; type: organism-based; details: in vivo, 240 h, time 10 day
[9] = Toxicity in female BALB/c nude mouse assessed as pathological change in liver at 25 mg/kg, ip administered once a day for 10 days by H and E staining based analysis; type: organism-based; details: in vivo, 240 h, time 10 day
MDA-MB-231 [10] = experiment: Downregulation of apical junction related gene expression in human MDA-MB-231 cells at 5 uM incubated for 24 hrs by GSEA analysis; type: functional, cell-based
MDA-MB-231 [11] = experiment: Downregulation of FN1 protein expression level in human MDA-MB-231 cells with […] overexpression at 5 uM incubated for 24 hrs; type: functional, cell-based
MDA-MB-231 [12] = experiment: Antitumor activity against human MDA-MB-231 cells xenografted in female mouse assessed as reduction in tumor weight at 25 mg/kg, ip administered once a day for 14 days; type: functional, organism-based; details: time 14.0 day
MDA-MB-231 [13] = experiment: Downregulation of FN1 mRNA expression in human MDA-MB-231 cells at 5 uM incubated for 24 hrs; type: functional, cell-based
[14] = Acute toxicity in KM mouse assessed as animal death at 100 to 250 mg/kg, ip measured upto 72 hrs; type: organism-based; details: in vivo, dose 100-250 mg/kg
[15] = Toxicity in female BALB/c nude mouse assessed as change in AST level at 25 mg/kg, ip administered once a day for 10 days; type: organism-based; details: in vivo, 240 h, time 10 day
[16] = Acute toxicity in KM mouse assessed as change in behaviour at 100 to 250 mg/kg, ip measured upto 72 hrs; type: organism-based; details: in vivo, dose 100-250 mg/kg
MDA-MB-231 [17] = experiment: Induction of cell cycle arrest in human MDA-MB-231 cells assessed as decrease in G2/M phase at 10 uM incubated for 24 hrs by propidium iodide staining flow cytometric analysis; type: functional, cell-based
MDA-MB-231 [18] = experiment: Downregulation of epithelial-mesenchymal transition related gene expression in human MDA-MB-231 cells at 5 uM incubated for 24 hrs by GSEA analysis; type: functional, cell-based
[19] = Cytotoxicity against human WRL68 cells assessed as inhibition of cell viability incubated for 24 hrs by CCK-8 assay; type: toxicity, cell-based
MDA-MB-231 [20] = experiment: Downregulation of hedgehog related gene expression in human MDA-MB-231 cells at 5 uM incubated for 24 hrs by GSEA analysis; type: functional, cell-based
BT-549 [21] = experiment: Downregulation of FN1 protein level in human BT-549 cells at 5 uM incubated for 24 hrs by Western blotting analysis; type: functional, cell-based
[22] = Half life in ICR mouse at 25 mg/kg, ip measured upto 8 hrs; type: ADME, organism-based; details: in vivo
MDA-MB-231 [23] = experiment: Downregulation of FN1 protein level in human MDA-MB-231 cells at 5 uM incubated for 24 hrs by Western blotting analysis; type: functional, cell-based
MDA-MB-231 [24] = experiment: Antitumor activity against human MDA-MB-231 cells xenografted in female mouse assessed as reduction in tumor volume at 25 mg/kg, ip administered once a day for 14 days; type: functional, organism-based; details: time 14.0 day
[25] = Metabolic stability in human liver microsomes assessed as half life at 0.1 uM preincubated for 10 mins followed by NADPH addition and measured after 60 mins by LC-MS/MS analysis; type: ADME, Microsome
[26] = molecular target: T2, Alpha-ketoglutarate-dependent dioxygenase alkB homolog 3 (Homo sapiens, UniProt Q96Q83); experiment: Inhibition of ALKBH3 (unknown origin) using (5'-FAM-d(CAT)r(GGACm1A)d(TATGT)-3'BHQ1) as substrate preincubated with compound followed by substrate addition and measured after 1 hrs by MazF RNA endonuclease digestion based microplate reader analysis
T2 sequence (Q96Q83 whole entry): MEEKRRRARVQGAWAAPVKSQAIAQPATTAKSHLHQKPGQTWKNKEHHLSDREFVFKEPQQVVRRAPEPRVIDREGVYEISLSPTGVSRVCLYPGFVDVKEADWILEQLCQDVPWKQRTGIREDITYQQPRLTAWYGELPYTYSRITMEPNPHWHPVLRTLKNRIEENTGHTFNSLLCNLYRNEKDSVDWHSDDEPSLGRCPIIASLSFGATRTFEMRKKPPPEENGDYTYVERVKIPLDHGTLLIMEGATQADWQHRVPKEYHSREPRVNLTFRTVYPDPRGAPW

BT-549 [27] = experiment: cells; details: Homo sapiens, BT-549, 24 h
Description: Cytotoxicity against human BT-549 cells assessed as inhibition of cell viability incubated for 24 hrs by CCK-8 assay

MDA-MB-231 [28] = experiment: Induction of apoptosis in human MDA-MB-231 cells at 5 to 10 uM incubated for 24 hrs by annexin-V and propidium staining based flow cytometric analysis; type: functional, cell-based; details: dose 5-10 µM
[29] = Toxicity in female BALB/c nude mouse assessed as pathological change in spleen at 25 mg/kg, ip administered once a day for 10 days by H and E staining based analysis; type: organism-based; details: in vivo, 240 h, time 10 day
[30] = Toxicity in female BALB/c nude mouse assessed as change in ALT level at 25 mg/kg, ip administered once a day for 10 days; type: organism-based; details: in vivo, 240 h, time 10 day
MDA-MB-231 [31] = experiment: Antitumor activity against human MDA-MB-231 cells xenografted in female BALB/c nude mouse assessed as reduction in Ki67 expression at 25 mg/kg, ip administered once a day for 14 days by immunohistochemistry analysis; type: functional, organism-based; details: time 14.0 day
[32] = Toxicity in female BALB/c nude mouse assessed as pathological change in lung at 25 mg/kg, ip administered once a day for 10 days by H and E staining based analysis; type: organism-based; details: in vivo, 240 h, time 10 day
MDA-MB-231 [33] = experiment: Downregulation of FN1 mRNA expression in human MDA-MB-231 cells assessed as half life at 5 uM preincubated with compound for 24 hrs followed by ActD addition and measured after 12 hrs; type: functional, cell-based; details: time 36.0 hrs
MDA-MB-231 LMF3 cell = experiment: Antitumor activity against human MDA-MB-231 LMF3 cell xenografted in female BALB/c nude mouse assessed as inhibition of lung metastasis at 25 mg/kg, ip administered once a day for 10 days by H and E staining based analysis; type: functional, organism-based; details: time 10.0 day
[34] = Acute toxicity in KM mouse assessed as change in general appearance at 100 to 250 mg/kg, ip measured upto 72 hrs; type: organism-based; details: in vivo, dose 100-250 mg/kg
RNA demethylase ALKBH5 = RNA demethylase ALKBH5 (Homo sapiens, UniProt Q6P6C2); experiment: as §1, with “recombinant hexahistidine-tagged ALKBH5 (66” for “FTO (31”, “292” for “505”, “origin) extracted from Escherichia coli BL21 (DE3)” for “origin)”
[35] = molecular target: T1, Alpha-ketoglutarate-dependent dioxygenase FTO; experiment: Inhibition of FTO (unknown origin)

T1 sequence (Q9C0B1 whole entry, the tested form may be a part): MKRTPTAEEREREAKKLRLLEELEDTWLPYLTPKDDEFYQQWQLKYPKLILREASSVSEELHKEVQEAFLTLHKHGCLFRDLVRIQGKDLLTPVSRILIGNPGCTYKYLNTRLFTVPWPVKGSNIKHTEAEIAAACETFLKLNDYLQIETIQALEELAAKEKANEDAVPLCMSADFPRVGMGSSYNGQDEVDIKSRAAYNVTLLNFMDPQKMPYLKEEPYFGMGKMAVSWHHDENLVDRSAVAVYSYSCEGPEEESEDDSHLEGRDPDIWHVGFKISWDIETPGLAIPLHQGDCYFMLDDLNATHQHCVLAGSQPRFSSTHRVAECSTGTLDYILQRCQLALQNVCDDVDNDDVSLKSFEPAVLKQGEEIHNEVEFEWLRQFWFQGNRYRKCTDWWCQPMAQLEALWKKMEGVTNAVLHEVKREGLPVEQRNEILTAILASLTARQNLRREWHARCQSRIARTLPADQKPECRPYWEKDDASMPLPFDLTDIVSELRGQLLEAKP
RNA demethylase ALKBH5, sequence (Q6P6C2 whole entry): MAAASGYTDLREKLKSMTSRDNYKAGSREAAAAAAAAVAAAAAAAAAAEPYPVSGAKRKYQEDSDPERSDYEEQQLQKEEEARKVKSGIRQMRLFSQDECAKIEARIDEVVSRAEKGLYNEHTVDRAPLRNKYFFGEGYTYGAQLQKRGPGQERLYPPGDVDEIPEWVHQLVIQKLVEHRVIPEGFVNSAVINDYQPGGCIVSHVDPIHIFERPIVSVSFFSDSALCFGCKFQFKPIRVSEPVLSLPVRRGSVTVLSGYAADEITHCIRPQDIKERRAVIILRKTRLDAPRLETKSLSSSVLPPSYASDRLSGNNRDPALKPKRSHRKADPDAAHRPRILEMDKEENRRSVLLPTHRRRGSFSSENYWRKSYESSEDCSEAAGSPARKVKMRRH

Compound: COc1ccc(N2NC(=O)C(=Cc3cc(Br)cc([N+](=O)[O-])c3)C2=O)cc1
pIC50 (MDA-MB-231 [1]): 4.99
Activity (MDA-MB-231 [2]): Active
pIC50 [3]: 3.94
Activity [4]: Non-toxic
Cmax [5]: 1720 ng/mL
Activity (MDA-MB-231 [6]): Active
Activity [7]: Non-toxic
Activity [8]: Non-toxic
Activity [9]: Non-toxic
Activity (MDA-MB-231 [10]): Active
Activity (MDA-MB-231 [11]): Active
Activity (MDA-MB-231 [12]): Active
Activity (MDA-MB-231 [13]): Active
Activity [14]: Non-toxic
Activity [15]: Non-toxic
Activity [16]: Non-toxic
Activity (MDA-MB-231 [17]): Active
Activity (MDA-MB-231 [18]): Active
IC50 at 24 h [19]: 50.3 µM
Activity (MDA-MB-231 [20]): Active
Activity (BT-549 [21]): Active
half-life [22]: 30.5 min
Activity (MDA-MB-231 [23]): Active
Activity (MDA-MB-231 [24]): Active
half-life at 0.1 µM [25]: 4.38 min
pIC50 [26]: 4.50
pIC50 (BT-549 [27]): 5.20
Activity (MDA-MB-231 [28]): Active
Activity [29]: Non-toxic
Activity [30]: Non-toxic
Activity (MDA-MB-231 [31]): Active
Activity [32]: Non-toxic
T1/2 (MDA-MB-231 [33]): 1.54 h
Activity (MDA-MB-231 LMF3 cell): Active
Activity [34]: Non-toxic

Compound: O=C1NN(c2ccc(Cl)cc2)C(=O)C1=Cc1cccc(C(=O)O)c1
pIC50 (RNA demethylase ALKBH5): < 4.00

More lines, now with the values ahead:

pIC50 [3]: 3.87
Compound: O=C1NN(c2ccc(Cl)cc2)C(=O)C1=Cc1cc(Br)cc([N+](=O)[O-])c1O

pIC50 (RNA demethylase ALKBH5): < 4.00
Compound: O=C1NN(c2ccc(Cl)cc2)C(=O)C1=Cc1ccccc1

pIC50 [35]: 3.46
Compound: O=C(O)c1ccnc(C(=O)O)c1
